The text below walks through data of patent US20220259221A1, “CANNABINOID DERIVATIVES” (CANOPY GROWTH CORPORATION, priority 2019, published 2022).

One assay concerns the target T1, human CB2 receptor (Homo sapiens, UniProt P34972).
T1 construct: host or cells: CHO-K1 (Chinese hamster ovary) cells, stably transfected; membranes prepared in house
Kind of assay: CB2 radioligand ([3H]CP55,940) competitive binding assay. Conditions: for Selectivity CB2: fold difference in binding between CB1 and CB2, shown in the column of the receptor with higher affinity, 1.00 in both = about the same affinity. As for the experimental part: Compounds of the present disclosure were tested for CB1 receptor binding affinity and for CB2 receptor binding affinity. As used herein, “binding affinity” is represented by the IC50 value, which was experimentally determined as described herein. The lower the IC50 value the higher the binding affinity. A compound of the present disclosure may be said to have “binding selectivity” if it has a higher binding affinity for one receptor compared to the other.
The membranes were prepared from CHO-K1 (Chinese hamster ovary) cells stably transfected with the human CB2 receptor (Cat. #ES-111-C; Perkin Elmer, Boston, Mass.). The cells were grown adherently and maintained in Ham's F12 medium containing 10% fetal bovine serum (FBS), penicillin, streptomycin and geneticin (G418) at 37° C. in a humid atmosphere of 5% CO2 following the manufacturer's instructions.
For membrane preparation the cells were washed with PBS and scraped off the plates in cold homogenization buffer (25 mM HEPES (pH 7.4), 2 mM EDTA) containing protease inhibitor cocktail (Sigma Cat. #P8340). The cell suspension was homogenized with a Pro-PK-01200D Polytron Homogenizer (Pro Scientific) and then centrifuged for 30 min at 120,000× g. The supernatant was discarded and the pellet was re-suspended in the homogenization buffer and stored at −80° C. until the time of use.
In this experiment, 3H radiolabeled CP55,940, i.e. [3H]CP55,940 (Perkin Elmer, Boston, Mass.), was used as a radioligand for the CB2 receptor to determine the binding affinity of compounds for the CB2 receptor (Scheme 4; above).
The competition binding experiments (single dose and dose-response) were performed by incubating 0.6 nM of [3H]CP55,940 (specific activity 101 Ci/mmol, Perkin Elmer) and different concentrations of compounds disclosed herein with membranes prepared as above from CHO-K1 cells expressing human CB2 receptor (1 μg of protein/well), 50 mM Tris-HCl (pH 7.4), 5 mM MgCl2, 1 mM CaCl2, and 2 mg/mL BSA.
For the single dose experiments, the compound stocks (usually 10 mM in DMSO) were diluted to working stocks in the binding buffer to give the final compound concentrations of 10 μM and 1 μM. For the dose-response experiments the test compounds were sequentially diluted to provide the desired concentration range for the IC50 determination. In each case the compounds were pre-incubated with the membrane for 20 min, before adding the radioligand.
After incubation with the radioligand for 60 min at 37° C., the incubation was terminated by rapid filtration of assay mixture through MultiScreen®HTS^+ 96-well filter plates (Millipore, Cat. #MSFCNXB), pre-soaked for 60 min with 50 mM Tris-HCl (pH 7.4) containing 0.33% polyethylenimine (PEI). The nonspecific binding (NSB) was determined in the presence of 10 μM unlabelled CP55,940. After drying the filter plate at 50° C. for at least 60 min, the filter-bound radioactivity was determined by scintillation spectrometry using the 1450 MicroBeta Plate Counter (Perkin Elmer, Boston, Mass.). From the dose-response experiments, the IC50 values were determined (see Table 1, CB2 IC50).

Assay [1] has as its target T2, human CB1 receptor (Homo sapiens, UniProt P21554). Kind of assay: biochemical. Format: binding. Further details: host or cells: CHO-K1 (Chinese hamster ovary) cells, stably transfected; membranes prepared in house. As to conditions: for Selectivity CB1: fold difference in binding between CB1 and CB2, shown in the column of the receptor with higher affinity, 1.00 in both = about the same affinity.

Assay [2] addresses T2, human CB1 receptor. As to the kind of experiment: PathHunter β-Arrestin functional assay, CB1 receptor, agonist mode. Format: cell-based. The text has this: (§1) In the PathHunter® β-Arrestin system from DiscoveRx (Eurofins, Fremont, Calif.), a small peptide, the ProLink™ (PK), is fused to the intracellular sequence of a GPCR target, and a complementing peptide, the enzyme acceptor (EA) fragment, is fused to β-arrestin. After binding to its specific ligand, the GPCR target recruits β-arrestin, forcing the complementation of the two β-galactosidase enzyme fragments (EA and PK) to produce a functional β-galactosidase enzyme. The enzyme activity, and thus the amount of ligand bound to the GPCR, is detected with a single addition of a reagent cocktail to lyse the cells and produce a chemiluminescent signal before being analyzed using a traditional plate reader.
(§2) PathHunter® CHO-K1 CNR1 β-Arrestin cells (DiscoverRx, cat. Number 93-0959C2) stably expressing CB1 receptor (CB1R) were grown in Ham's F12 medium containing 10% fetal bovine serum (FBS), 1% penicillin/streptomycin, 300 μg/mL Hygromycin B and 800 μg/mL geneticin (G418) and maintained in 37° C. incubators at 5% CO2. […]
(§3) The incubation was terminated by adding the detection reagent (19 parts of 1% CHAPS, 5 parts Emerald-II and 1 part Galacton-Star), equivalent to 50% of the assay volume to each wells. Plates were incubated for 1 hour in the dark at room temperature, followed by chemiluminescence detection using a microplate reader.
(§4) Data were analysed by generating nonlinear regression curves. […]

Assay [3] deals with T2, human CB1 receptor. As to the kind of experiment: PathHunter β-Arrestin functional assay, CB1 receptor, antagonist mode. The format is cell-based.
Text: as §1, §2, §3, §4

T1 sequence (P34972 whole entry): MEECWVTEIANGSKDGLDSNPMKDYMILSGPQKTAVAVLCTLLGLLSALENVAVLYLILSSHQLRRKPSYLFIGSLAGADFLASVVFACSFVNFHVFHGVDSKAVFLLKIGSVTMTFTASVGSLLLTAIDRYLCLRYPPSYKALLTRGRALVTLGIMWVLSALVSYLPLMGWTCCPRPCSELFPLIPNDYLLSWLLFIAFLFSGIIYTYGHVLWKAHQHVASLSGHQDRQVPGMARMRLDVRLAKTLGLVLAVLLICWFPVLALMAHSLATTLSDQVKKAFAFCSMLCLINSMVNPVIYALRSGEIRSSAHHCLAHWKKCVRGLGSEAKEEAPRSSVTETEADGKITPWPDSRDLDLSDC
T2 sequence (P21554 whole entry): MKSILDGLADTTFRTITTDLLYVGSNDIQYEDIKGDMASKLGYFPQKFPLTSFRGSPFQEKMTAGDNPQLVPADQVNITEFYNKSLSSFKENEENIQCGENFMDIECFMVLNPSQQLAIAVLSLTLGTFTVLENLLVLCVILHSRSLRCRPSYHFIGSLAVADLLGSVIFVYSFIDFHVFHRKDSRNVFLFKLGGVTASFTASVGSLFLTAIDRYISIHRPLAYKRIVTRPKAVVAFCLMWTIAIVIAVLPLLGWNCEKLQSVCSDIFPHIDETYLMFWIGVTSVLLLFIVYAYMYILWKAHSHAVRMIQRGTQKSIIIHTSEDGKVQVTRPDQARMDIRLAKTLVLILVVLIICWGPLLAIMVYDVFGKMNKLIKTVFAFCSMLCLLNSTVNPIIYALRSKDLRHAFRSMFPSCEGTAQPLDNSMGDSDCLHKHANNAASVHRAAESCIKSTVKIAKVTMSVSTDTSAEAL

`CCCCCc1cc2c(c3c1C(=O)OCO3)[C@@H]1C=C(C)CC[C@H]1C(C)(C)O2` [Compound 1b, 8,8,11-trimethyl-5-pentyl-8a,9,10,12a-tetrahydro-4H,8H-benzo[c][1,3]dioxino[4,5-f]chromen-4-one]: on human CB2 receptor, the IC50 (as a rule, the concentration that inhibits the measured activity by half) was under 500 nM and the “Selectivity CB2” value was 1.80 fold. Further, the IC50 against human CB1 receptor [1] was 500 to 990 nM.
For `CCCCCc1cc2c(c3c1C(=O)OC(C)(C)O3)[C@@H]1C=C(C)CC[C@H]1C(C)(C)O2` [Compound 2b, 2,2,8,8,11-pentamethyl-5-pentyl-8a,9,10,12a-tetrahydro-4H,8H-benzo[c][1,3]dioxino[4,5-f]chromen-4-one], in that order: under 500 nM, 1.03 fold and under 500 nM.
As to `CCCCCc1cc2c(c3c1C(=O)OC(c1ccccc1)O3)[C@@H]1C=C(C)CC[C@H]1C(C)(C)O2` (stereo partly shown) [Compound 3b, 8,8,11-trimethyl-5-pentyl-2-phenyl-8a,9,10,12a-tetrahydro-4H,8H-benzo[c][1,3]dioxino[4,5-f]chromen-4-one], the IC50 on human CB2 receptor and against human CB1 receptor [1] was 1000 to 4990 nM throughout. In addition, the “Selectivity CB1” value at human CB1 receptor [1] is on record as 1.62 fold.
Turning to `CCCCCc1cc2c(c3c1C(=O)OC(CC(C)=O)(c1ccccc1)O3)[C@@H]1C=C(C)CC[C@H]1C(C)(C)O2` (stereo partly shown) [Compound 12b, 8,8,11-trimethyl-2-(2-oxopropyl)-5-pentyl-2-phenyl-8a,9,10,12a-tetrahydro-4H,8H-benzo[c][1,3]dioxino[4,5-f]chromen-4-one], at human CB2 receptor, the IC50 is over 5000 nM and the “Selectivity CB2” value amounted to 1.33 fold. Besides, the IC50 against human CB1 receptor [1] was over 5000 nM.
Turning to `CCCCCc1cc2c(c3c1C(=O)OC(CC(C)=O)(c1ccc(F)cc1)O3)[C@@H]1C=C(C)CC[C@H]1C(C)(C)O2` (stereo partly shown) [Compound 13b, 2-(4-fluorophenyl)-8,8,11-trimethyl-2-(2-oxopropyl)-5-pentyl-8a,9,10,12a-tetrahydro-4H,8H-benzo[c][1,3]dioxino[4,5-f]chromen-4-one], at human CB2 receptor, the IC50 is 1000 to 4990 nM and the “Selectivity CB2” value is reported as 1.00 fold. Further, at human CB1 receptor [1], the IC50 fell in the range of 1000 to 4990 nM and the “Selectivity CB1” value came out at 1.00 fold.
`CCCCCc1cc2c(c3c1C(=O)OC(CC(C)=O)O3)[C@@H]1C=C(C)CC[C@H]1C(C)(C)O2` (stereo partly shown) [Compound 14b, 8,8,11-trimethyl-2-(2-oxopropyl)-5-pentyl-8a,9,10,12a-tetrahydro-4H,8H-benzo[c][1,3]dioxino[4,5-f]chromen-4-one] had an IC50 on human CB2 receptor of 1000 to 4990 nM. Also, on human CB1 receptor [1], the IC50 lay within 1000 to 4990 nM and the “Selectivity CB1” value amounted to 2.69 fold.
`CCCCCc1cc2c(c3c1C(=O)OC(C)O3)[C@@H]1C=C(C)CC[C@H]1C(C)(C)O2` (stereo partly shown) [Compound 16b, 2,8,8,11-tetramethyl-5-pentyl-8a,9,10,12a-tetrahydro-4H,8H-benzo[c][1,3]dioxino[4,5-f]chromen-4-one]: the IC50 at human CB2 receptor is under 500 nM; against human CB1 receptor [3] it was about 3000 nM; at human CB1 receptor [1], under 500 nM. For the same compound, the EC50 (commonly the concentration at which the effect is half-maximal) at human CB1 receptor [2] is about 252 nM. In addition, on human CB1 receptor [2] (agonist mode, normalized to CP55,940), the “relative efficacy in comparison to CP55,940” value is on record as “about 7%”. For the same compound, the “relative inhibition in comparison to rimonabant” value on human CB1 receptor [3] (antagonist mode, normalized to rimonabant) was “about 35%”. Further, the “Selectivity CB1” value at human CB1 receptor [1] came out at 1.50 fold.
For `CCCCCc1cc2c(c3c1C(=O)OC(CC)O3)[C@@H]1C=C(C)CC[C@H]1C(C)(C)O2` (stereo partly shown) [Compound 17b, 2-ethyl-8,8,11-trimethyl-5-pentyl-8a,9,10,12a-tetrahydro-4H,8H-benzo[c][1,3]dioxino[4,5-f]chromen-4-one], at human CB2 receptor, the IC50 is under 500 nM and the “Selectivity CB2” value is given as 12.73 fold. This compound showed an IC50 at human CB1 receptor [1] of 1000 to 4990 nM.
As for `CCCCCc1cc2c(c3c1C(=O)OC(CC(C)=O)(c1ccc(OC)cc1)O3)[C@@H]1C=C(C)CC[C@H]1C(C)(C)O2` (stereo partly shown) [Compound 21b, 2-(4-methoxyphenyl)-8,8,11-trimethyl-2-(2-oxopropyl)-5-pentyl-8a,9,10,12a-tetrahydro-4H,8H-benzo[c][1,3]dioxino[4,5-f]chromen-4-one], at human CB2 receptor, the IC50 lay within 1000 to 4990 nM and the “Selectivity CB2” value worked out at 1.00 fold. At human CB1 receptor [1], the IC50 was 1000 to 4990 nM and the “Selectivity CB1” value came out at 1.00 fold.
For the compound `CCCCCc1cc2c(c3c1C(=O)OC(CC(C)=O)(c1ccc(Cl)cc1)O3)[C@@H]1C=C(C)CC[C@H]1C(C)(C)O2` (stereo partly shown) [Compound 23b, 2-(4-chlorophenyl)-8,8,11-trimethyl-2-(2-oxopropyl)-5-pentyl-8a,9,10,12a-tetrahydro-4H,8H-benzo[c][1,3]dioxino[4,5-f]chromen-4-one], at human CB2 receptor, the half-inhibitory concentration (IC50) lay within 1000 to 4990 nM and the “Selectivity CB2” value was 1.00 fold. Also, at human CB1 receptor [1], the IC50 is 1000 to 4990 nM and the “Selectivity CB1” value worked out at 1.00 fold.
